A short description of series [1]: Liver microsomal stability, dog. In kind it is in vitro ADME. To be noted: pooled liver microsomes, pH 7.4, 3 μM compound, 0.5 mg/mL protein, read-out: Liver Microsomal Stability t1/2. The procedure: (§1) Microsomal incubation: Experimental Procedure Pooled liver microsomes are purchased from a reputable commercial supplier and stored at −80° C. prior to use. Microsomes (final protein concentration 0.5 mg/mL), 0.1 M phosphate buffer pH 7.4 and test compound (final substrate concentration 3 μM, final DMSO concentration 0.25%) are pre-incubated at 37° C. prior to the addition of NADPH (final concentration 1 mM) to initiate the reaction. The final incubation volume is […]. A control incubation is included for each compound tested where 0.1 M phosphate buffer pH 7.4 is added instead of NADPH (minus NADPH). Two control compounds are included with each species. All incubations are performed singularly for each test compound. Each compound is incubated for 0, 5, 15, 30 and 45 min. The control (minus NADPH) is incubated for 45 min only. The reactions are stopped by transferring 20 μL of incubate to 60 μL MeOH at the appropriate time points. The termination plates are centrifuged at 2,500 rpm for 20 min at 4° C. to precipitate the protein. Following protein precipitation, the sample supernatants are combined in cassettes of up to 4 compounds, internal standard is added and samples analysed by LC-MS/MS. From a plot of In peak area ratio (compound peak area/internal standard peak area) against time, the gradient of the line is determined. Subsequently, half-life and intrinsic clearance are calculated.
On the technique in general: Microsomes from liver hold many membrane-bound enzymes, among them those of drug oxidation.

The nature of series [2]: Liver microsomal stability, human. Format: in vitro ADME. To be noted: pooled liver microsomes, pH 7.4, 3 μM compound, 0.5 mg/mL protein, read-out: Liver Microsomal Stability t1/2. As to the method: as §1
Series [3] can be described thus: Liver microsomal stability, rat. Format: in vitro ADME. To be noted: pooled liver microsomes, pH 7.4, 3 μM compound, 0.5 mg/mL protein, read-out: Liver Microsomal Stability t1/2. As to the method:
as §1

The next series relates to MDR1. The series can be described thus: in vitro. Format: in vitro ADME. To be noted: dog, MDCK-MDR1. As to the method: MDR1-MDCK Permeability: Experimental Procedure
MDR1-MDCK cells obtained from the NIH (Rockville, Md., USA) are used between passage numbers 6-30. Cells are seeded onto Millipore Multiscreen Transwell plates at 3.4×10^5 cells/cm^2. The cells are cultured in DMEM and media is changed on day 3. On day 4 the permeability study is performed. Cell culture and assay incubations are carried out at 37° C. in an atmosphere of 5% CO2 with a relative humidity of 95%. On the day of the assay, the monolayers are prepared by rinsing both basolateral and apical surfaces twice with Hanks Balanced Salt Solution (HBSS) at the desired pH warmed to 37° C. Cells are then incubated with HBSS at the desired pH in both apical and basolateral compartments for 40 min to stabilise physiological parameters.
The dosing solutions are prepared by diluting test compound with assay buffer to give a final test compound concentration of 10 μM (final DMSO concentration of 1% v/v). The fluorescent integrity marker lucifer yellow is also included in the dosing solution. Analytical standards are prepared from test compound DMSO dilutions and transferred to buffer, maintaining a 1% v DMSO concentration.
For assessment of A-B permeability, HBSS is removed from the apical compartment and replaced with test compound dosing solution. The apical compartment insert is then placed into a companion plate containing fresh buffer (containing 1% v/v DMSO). For assessment of B-A permeability, FIBSS is removed from the companion plate and replaced with test compound dosing solution. Fresh buffer (containing 1% v/v DMSO) is added to the apical compartment insert, which is then placed into the companion plate. At 60 min the apical compartment inserts and the companion plates are separated and apical and basolateral samples diluted for analysis. Test compound permeability is assessed in duplicate. Compounds of known permeability characteristics are run as controls on each assay plate.
Test and control compounds are quantified by LC-MS/MS cassette analysis using an 8-point calibration with appropriate dilution of the samples. The starting concentration (C0) is determined from the dosing solution and the experimental recovery calculated from C0 and both apical and basolateral compartment concentrations. The integrity of the monolayer throughout the experiment is checked by monitoring lucifer yellow permeation using fluorimetric analysis. Lucifer yellow permeation is high if monolayers have been damaged.

Series [4] deals with RSV fusion (HEK293T cells transfected with pCDNA3.1_A2_F). As to the kind of experiment: RSV fusion assay. In kind it is cell-based. To be noted: human respiratory syncytial virus, HEK-293T, read-out: RSV Fusion Assay (n ≥ 2) IC50. As to the method: HEK293T ((ECACC 12022001) cells were cultured in T75 culture flasks in Dulbecco's medium (DMEM) containing 10% Foetal Bovine serum (FBS), 50 units per mL Penicillin and 50 μg/mL Streptomycin and warmed to 37° C. prior to use. The cells were passaged by first washing briefly with 5 mL Phosphate buffered saline (PBS), followed by addition of 2 mL of Trypsin Ethylenediaminetetraacetic acid (EDTA) to detach the cells. Once cells had detached from the flask, 8 mL media was then added to and the cells dispersed via pipetting against the bottom of the flask.
The cells were counted and diluted to 3×10^5 cells/mL in fresh media. Two T75 flasks were each seeded with 15.6 mL diluted cells, cells were also subcultured at a ratio of between 1:2 and 1:10, to continue the stock. The flasks were then incubated for 24 h at 37° C. and 5% CO2.
The plasmid DNA (for pFR-Luc and pcDNA3.1_Gal4/NFKB) to be transfected into the HEK 293T cells was first prepared in serum free media (Opti-MEM, Invitrogen), containing the transfection reagent FuGENE® 6 (Promega). Serum free media was placed in a 1.5 mL eppendorf tube then the FuGENE 6 was added into the media. The tube was vortexed for 1 s before being incubated at RT for 5 min. 7.79 ng of both pFR_luc and pCDNA3.1_A2_F plasmid DNA were added to tube 1 and 7.79 ng of pCDNA3.1_GAL4-NF-κB plasmid to tube 2. The tubes were vortexed for 1 second and then incubated at room temperature for 15 min. Each transfection mixture was then added into the media of one of the T75 flasks of 293T cells. Cells were cultured for 24 h at 37° C., 5% CO2 in a humidified incubator.
Compounds were diluted (in a polypropylene round-bottomed 96 well plate) 1:3 in a twelve point dilution curve to give top [final] of either 25 μM, 3 μM, 1 μM or 500 nM. A control compound was included in every assay at a top concentration of 3 μM. Transfected cells were counted and diluted to 4×10^5 cells/mL in fresh media. 50 μL of transfection population 1 were added to all wells of the 96 well flat bottom white opaque assay plates. 100 μL diluted compound (2 rows per compound), control compound (one row) and controls (DMSO (0% inhibition, four wells), 3 μM positive control (100% inhibition, four wells) and media (transfection population 1 only, four wells) were added to the appropriate wells. 50 μL of the diluted (4×10^5 cells/mL) population 2 cells when then added to all wells, except the four wells of transfection population 1 only where an extra 50 μL of this cells population was added.
The plates were then incubated for 24 h at 37° C. and 5% CO2. After this time, 100 μL was removed from all wells and 60 μL of ONE-Glo™ (Promega) reagent, pre-equilibrated to room temperature, was added. Plates were then incubated for 3 min at room temperature before luminescence was read, using the ONE-Glo protocol, on the GloMax Explorer System (Promega) multimode reader. Analysis was carried out in Dotmatics software. All raw data were background subtracted (subtraction of mean 3 μM positive control value), before IC50 calculation.

SMILES strings stand for the structures.

In general, Papp A→B refers to how fast a substance crosses the layer from the apical side. Low readings indicate slow passage, high ones fast passage. One may read the Papp B→A as how fast a substance crosses the layer from the basolateral side. Usually IC50 stands for the concentration that inhibits the measured activity by half. On to `CS(=O)(=O)CCCn1c(CN2C(=O)C(F)(F)c3ccccc32)nc2cc(Cl)ccc21` [Compound 5, 1-{[5-Chloro-1-(3-methanesulfonylpropyl)-1H-1,3-benzodiazol-2-yl]methyl}-3,3-difluoro-2,3-dihydro-1H-indol-2-one], for which the results for the half-life at 3 μM in series [1], in series [2] and in series [3] were 1.05 h, 54.7 h and 0.355 h, respectively. This molecule also showed a Papp A→B at 60 min, 10 μM in the series on MDR1 of 2.1 nm/s. Further, the apparent permeability from basolateral to apical (Papp B→A) at 60 min, 10 μM in the series on MDR1 was 145 nm/s. Also, in series [4], the IC50 amounted to 3.9 nM.
In the case of `CCS(=O)(=O)N1CCC(n2c(CN3C(=O)C(F)(F)c4ccccc43)nc3cc(Cl)ccc32)CC1` [Compound 9, 1-({5-Chloro-1-[1-(ethanesulfonyl)piperidin-4-yl]-1H-1,3-benzodiazol-2-yl}methyl)-3,3-difluoro-2,3-dihydro-1H-indol-2-one], the half-life at 3 μM in series [1] came out at 1.97 h; in series [2], 1.5 h; in series [3] it was 0.377 h. The molecule also came in with a Papp A→B at 60 min, 10 μM in the series with MDR1 of 104 nm/s. In addition, the Papp B→A at 60 min, 10 μM with MDR1 was 183 nm/s. Further, in series [4], the IC50 came to 2.2 nM.
Consider `O=C1N(Cc2nc3cc(Cl)ccc3n2C2CCOCC2)c2ccccc2C1(F)F` [Compound 10, 1-{[5-Chloro-1-(oxan-4-yl)-1H-1,3-benzodiazol-2-yl]methyl}-3,3-difluoro-2,3-dihydro-1H-indol-2-one], for which the half-life at 3 μM was found to be 0.207 h in series [1], 1.12 h in series [2] and 0.303 h in series [3]. In the series with MDR1, this molecule registered a Papp A→B at 60 min, 10 μM of 198 nm/s. In the series with MDR1, this molecule had a Papp B→A at 60 min, 10 μM of 344 nm/s. The half-maximal inhibitory concentration (IC50) in series [4] was 17 nM.
`CC(C)CCn1c(CN2C(=O)C(F)(F)c3ccccc32)nc2cc(CN)ccc21` [Compound 13, 1-{[5-(Aminomethyl)-1-(3-methylbutyl)-1H-1,3-benzodiazol-2-yl]methyl}-3,3-difluoro-2,3-dihydro-1H-indol-2-one]: the half-life at 3 μM in series [1] amounted to 154 h; in series [2], 6.1 h; in series [3], 0.282 h. In the series on MDR1, the Papp A→B at 60 min, 10 μM is 8.4 nm/s. In the series on MDR1, this molecule gave a Papp B→A at 60 min, 10 μM of 571 nm/s. The IC50 in series [4] is 2.6 nM.
